Drawing on ChEMBL document CHEMBL1155570, “5'-Methoxyhydnocarpin-D and pheophorbide A: Berberis species components that potentiate berberine growth inhibition of resistant Staphylococcus aureus” (J Nat Prod, 2000), this text covers Activity for ten compounds.

Active and inactive are the calls of the source. The rule behind the calls is not given here.

For test [1], the system named is Staphylococcus aureus. As to the kind of experiment: Antimicrobial activity against Staphylococcus aureus 4222 with norA KLE 820(3) mutation. Format: functional, organism-based.
Test [2] concerns Staphylococcus aureus. Kind of test: Antimicrobial activity against Staphylococcus aureus 4222 with norA KLE mutation at 120 to 140 ug/ml. Format: functional, organism-based.

`COc1ccc(CC2c3cc(OC)c(OC)cc3CCN2C)cc1OC` (stereo not given): in test [1], the outcome was inactive.
Consider `COc1ccc2cc3[n+](cc2c1OC)CCc1cc2c(cc1-3)OCO2`, for which the outcome in test [2] was Active.
On to `COc1ccc2c(c1OC)CN(C)CCc1cc3c(cc1C(=O)C2)OCO3`, for which the result in test [1] was inactive.
On to `COc1cc2c(cc1OC)C1Cc3cc(OC)c(OC)cc3[C@H](C2)N1C`, for which the outcome in test [1] was inactive.
`COc1cc2c(cc1OC)-c1c(OC)c(OC)cc3c1[C@H](C2)N(C)CC3`: in test [1], the result was inactive.
As for `COc1ccc2c(c1O)-c1c(OC)c(OC)cc3c1[C@H](C2)N(C)CC3`, in test [1], the result was inactive.
`COc1cc2c(cc1O)[C@@H]1Cc3cc(O)c(OC)cc3C(C2)N1C`: in test [1], the outcome was inactive.
Take `CN1CCc2cc3c(cc2C(=O)Cc2cc4c(cc2C1)OCO4)OCO3`: the outcome in test [1] was inactive.
`COc1ccc2c(c1OC)-c1c(OC)c(OC)cc3c1[C@H](C2)[N+](C)(C)CC3`: the outcome in test [1] was inactive.
For the compound `COc1cc2c(cc1OC)[C@@H]1Cc3ccc(OC)c(OC)c3CN1CC2`, the outcome in test [1] was inactive.
